From the NIST ThermoML archive (doi:10.1021/je0501843)
Where “and” joins values, the source holds several entries; their conditions need not be identical. Equal entries are not always repeated. ± gives the expanded uncertainty stated by the source.

Assay: molar heat capacity at constant volume; wn = mass fraction of the nth substance listed
Conditions: Fluid (supercritical or subcritical phases), Vacuum adiabatic calorimetry, w1 = 0.5001

FC(F)C(F)(F)F [pentafluoroethane] + FCF
Conditions | molar heat capacity at constant volume
301 K, 4414 kPa | 70.23 ± 1.4 J/K/mol
302 K, 4977 kPa | 70.17 ± 1.4 J/K/mol
303 K, 5537 kPa | 70.3 ± 1.4 J/K/mol
303 K, 5540 kPa | 70.03 ± 1.4 J/K/mol
304 K, 6101 kPa | 69.82 ± 1.4 J/K/mol
304 K, 6103 kPa | 69.96 ± 1.4 J/K/mol
305 K, 6663 kPa | 69.83 ± 1.4 J/K/mol and 69.76 ± 1.4 J/K/mol
306 K, 7227 kPa | 69.97 ± 1.4 J/K/mol
306 K, 7228 kPa | 70.45 ± 1.4 J/K/mol
307 K, 7791 kPa | 70.07 ± 1.4 J/K/mol
307 K, 7792 kPa | 70.29 ± 1.4 J/K/mol
308 K, 8356 kPa | 69.75 ± 1.4 J/K/mol
308 K, 8357 kPa | 69.97 ± 1.4 J/K/mol
309 K, 8918 kPa | 70.23 ± 1.4 J/K/mol and 69.75 ± 1.4 J/K/mol
310 K, 9482 kPa | 70.03 ± 1.4 J/K/mol
310 K, 9484 kPa | 69.9 ± 1.4 J/K/mol
311 K, 10048 kPa | 70.12 ± 1.4 J/K/mol
311 K, 10049 kPa | 69.86 ± 1.4 J/K/mol
312 K, 10614 kPa | 69.67 ± 1.4 J/K/mol
312 K, 10615 kPa | 69.66 ± 1.4 J/K/mol
313 K, 11178 kPa | 69.33 ± 1.4 J/K/mol
313 K, 11179 kPa | 69.43 ± 1.4 J/K/mol
314 K, 11741 kPa | 69.02 ± 1.4 J/K/mol
314 K, 11743 kPa | 69.3 ± 1.4 J/K/mol
315 K, 12309 kPa | 69.15 ± 1.4 J/K/mol and 68.67 ± 1.4 J/K/mol
316 K, 12875 kPa | 69.06 ± 1.4 J/K/mol
316 K, 12877 kPa | 68.75 ± 1.4 J/K/mol
317 K, 13440 kPa | 68.83 ± 1.4 J/K/mol and 68.21 ± 1.4 J/K/mol
318 K, 14003 kPa | 67.4 ± 1.4 J/K/mol
318 K, 14005 kPa | 68 ± 1.4 J/K/mol
319 K, 14570 kPa | 67.78 ± 1.4 J/K/mol
319 K, 14571 kPa | 68.05 ± 1.4 J/K/mol
320 K, 15135 kPa | 67.81 ± 1.4 J/K/mol
320 K, 15137 kPa | 68.49 ± 1.4 J/K/mol
321 K, 15700 kPa | 67.05 ± 1.4 J/K/mol
321 K, 15701 kPa | 67.37 ± 1.4 J/K/mol
322 K, 16263 kPa | 66.48 ± 1.3 J/K/mol
322 K, 16265 kPa | 66.83 ± 1.4 J/K/mol
323 K, 16830 kPa | 66.97 ± 1.4 J/K/mol and 66.81 ± 1.4 J/K/mol
324 K, 17394 kPa | 66.92 ± 1.4 J/K/mol
324 K, 17396 kPa | 66.39 ± 1.3 J/K/mol
325 K, 5448 kPa | 69.93 ± 1.4 J/K/mol
325 K, 17959 kPa | 66.13 ± 1.3 J/K/mol
325 K, 17961 kPa | 66.31 ± 1.3 J/K/mol
326 K, 5835 kPa | 69.81 ± 1.4 J/K/mol
326 K, 5836 kPa | 71.48 ± 1.4 J/K/mol
326 K, 18524 kPa | 65.89 ± 1.3 J/K/mol
326 K, 18525 kPa | 66.07 ± 1.3 J/K/mol
327 K, 6224 kPa | 70.12 ± 1.4 J/K/mol
